A short description of data set [1]: Pharmacokinetic assay in rats. It counts as in vivo. The note with it: rat, po, male SD rats, 5 mg/kg single intragastric administration, plasma. The procedure:
Male SD rats were available from Beijing Vital River Laboratory Animal Technology Co., Ltd. The rats were allocated with three rats per group, and separately administered the suspension of a sample to be tested (5 mg/kg) by single intragastric administration. Before the experiment, the animals were fasted overnight, and the fasting time was from 10 hrs before administration to 4 hrs after administration. After administration, a blood sample was taken at 0.25 hr, 0.5 hr, 1 hr, 2 hrs, 4 hrs, 6 hrs, 8 hrs and 24 hrs. After the animals were narcotized with isoflurane using an anaesthesia machine for small animals, 0.3 mL of whole blood was taken from fundus venous plexus, and placed in a heparin anticoagulant tube. At 4° C., the sample was centrifuged at 4000 rpm for 5 min, and plasma was transferred to a centrifuge tube and preserved at −80° C. until the analysis was started. The sample in plasma was extracted by the protein precipitation method, and the extracted liquid was analyzed by LC/MS/MS.

Data set [2] addresses TrkA^G667C (Kinase domain) kinase (Homo sapiens (Human), UniProt P04629, G667C). Briefly: HTRF assay for inhibitory activity (IC50) against TrkA^G667C kinase. It counts as biochemical. Conditions: mutant TrkA kinase, ATP 15 μM, kinase 0.5 nM. As for the experimental part: 3. Assay for Inhibitory Activity (IC50) Against TrkA^G667C Kinase
TrkA^G667C (Kinase domain) kinase was expressed in Sf9 cells (purchased from Invitrogen) using pIEX-Bac-4 (purchased from Merck), and purified by using Ni column affinity chromatography on AKTA Purifier (GE company). A testing platform for TrkA^G667C kinase activity was established based on Homogeneous Time-Resolved Fluorescence (HTRF) assay, and the activities of the compounds were tested using the platform. The compounds were subjected to five-fold gradient dilution with 100% DMSO with a starting concentration of 1 mM (8 concentrations in total). 4 μL of diluted sample for each concentration was added to 96 μL of reaction buffer (50 mM HEPES, pH7.4, 5 mM MgCl2, 1 mM NaVO3, 0.001% Tween-20, 0.01% BSA and 1 mM DTT) and mixed homogeneously to be used as a 4* compound. The reaction buffer was used to formulate 2* TrkA^G667C kinases (the final concentration was 0.5 nM) and a 4* substrate mixture (ATP+TK peptide) (wherein, the final concentration of ATP was 15 μM; TK peptide, HTRF® KinEASE™-TK, was purchased from Cisbio, and the final concentration thereof was 100 nM) for use. 2.5 μL of the 4* compound was added to a 384-well plate (OptiPlate-384, purchased from PerkinElmer), and then 5 μL of the 2* TrkA^G667C kinases were added, and mixed homogeneously by centrifugation. Then 2.5 μL of the 4* substrate mixture was added to initiate the reaction (the total reaction volume is 10 μL). The 384-well plate was placed in an incubator to incubate for 60 min at 23° C. Then the reaction was terminated by adding 5 μL of Eu3+ cryptate-labeled anti-phosphotyrosine antibody (HTRF KinEASE™-TK, purchased from Cisbio), and 5 μL of Streptavidin-XL-665 (HTRF® KinEASE™-TK, purchased from Cisbio). After incubated for 1 h in the incubator, the fluorescence values were read on Envision (purchased from PerkinElmer). The excitation wavelength was 320 nm, and the emission wavelengths for detection were 665 nm and 620 nm. The enzymatic activity was represented by a ratio of the two readout at the two emission wavelengths. […]

Data set [3] has as its target JAK2 kinase (Homo sapiens (Human), UniProt O60674). Briefly: HTRF assay for inhibitory activity (IC50) against JAK2 kinase. The note with it: ATP 5 μM, kinase 0.05 nM. Type of data set: biochemical. The procedure: 2. Assay for Inhibitory Activity (IC50) Against JAK2 Kinase
A testing platform for JAK2 kinase activity was established based on Homogeneous Time-Resolved Fluorescence (HTRF) assay, and the activities of the compounds were tested using the platform. The compounds were subjected to three-fold gradient dilution with 100% DMSO with a starting concentration of 1 mM (11 concentrations in total). 4 μL of diluted sample for each concentration was added to 96 μL of reaction buffer (50 mM HEPES, pH7.4, 10 mM MgCl2, 1 mM EDTA, 0.01% Tween-20, 0.005% BSA and 2 mM DTT) and mixed homogeneously. 2.5 μL of the resulting liquid was then added to a 384-well plate (OptiPlate-384, purchased from PerkinElmer), and 5 μL of JAK2 kinase (purchased from Carna, and the final concentration thereof is 0.05 nM) was added, and mixed homogeneously by centrifugation. Then 2.5 μL of a mixture of ATP (the final concentration is 5 μM) and TK peptide (HTRF® KinEASE™-TK, purchased from Cisbio, and the final concentration is 100 nM) was added to initiate the reaction (the total reaction volume is 10 μL). The 384-well plate was placed in an incubator to incubate for 120 min at 23° C. Then the reaction was terminated by adding 5 μL of Eu3+ cryptate-labled anti-phosphotyrosine antibody (purchased from Cisbio), and 5 μL of Streptavidin-XL-665 (HTRF® KinEASE™-TK, purchased from Cisbio). After incubated for 1 hr in the incubator, the fluorescence values were read on Envision (purchased from PerkinElmer). The excitation wavelength was 320 nm, and the emission wavelengths for detection were 665 nm and 620 nm. The enzymatic activity was represented by a ratio of the two readout at the two emission wavelengths. The enzymatic activity for each compound was tested at 11 concentrations, and IC50 values of the compounds were obtained by calculating the data using GraFit6.0 software (Erithacus Software).
(In general: In TR-FRET formats the signal depends on donor and acceptor labels being close together.)

For data set [4], the target named is TrkA kinase (Homo sapiens (Human), UniProt P04629). Nature of the data set: HTRF assay for inhibitory activity (IC50) against NTRK kinase, TrkA. The note with it: kinase 0.5 nM. It counts as biochemical. The procedure: (§1) 1. Assay for Inhibitory Activity (IC50) Against NTRK Kinase
(§2) A testing platform for TrkA, TrkB and TrkC kinase activity was established based on Homogeneous Time-Resolved Fluorescence (HTRF) assay, and the activities of the compounds were tested using the platform. The compounds were subjected to three-fold gradient dilution with 100% DMSO with a starting concentration of 1 mM (11 concentrations in total). 4 μL of diluted sample for each concentration was added to 96 μL of reaction buffer (50 mM HEPES, pH7.4, 5 mM MgCl2, 1 mM NaVO3, 0.001% Tween-20, 0.01% BSA and 1 mM DTT) and mixed homogeneously to be used as a 4* compound. The reaction buffer was used to formulate 2* TrkA, TrkB and TrkC kinases (purchased from Carna Biosciences 08-186, 08-187, 08-197, and the final concentrations thereof were 0.5 nM, 0.1 nM, and 1 nM, respectively) and 4* substrate mixture (ATP+TK peptide) (wherein the final concentrations of ATP were 40 μM, 50 μM, and 20 μM, respectively; TK peptide, HTRF® KinEASE™-TK, was purchased from Cisbio, and the final concentration thereof was 100 nM) for use. 2.5 μL of the 4* compound was added to a 384-well plate (OptiPlate-384, purchased from PerkinElmer), and then 5 μL of the 2* TrkA, TrkB and TrkC kinases were added, and mixed homogeneously by centrifugation. Then 2.5 μL of the 4* substrate mixture was added to initiate the reaction (the total reaction volume is 10 μL). The 384-well plate was placed in an incubator and incubated for 60 min at 23° C. Then the reaction was terminated by adding 5 μL of Eu3+ cryptate-labeled anti-phosphotyrosine antibody (HTRF® KinEASE™-TK, purchased from Cisbio), and 5 μL of Streptavidin-XL-665 (HTRF® KinEASE™-TK, purchased from Cisbio). After incubated for 1 hr in the incubator, the fluorescence values were read on Envision (purchased from PerkinElmer). The excitation wavelength was 320 nm, and the emission wavelengths for detection were 665 nm and 620 nm. The enzymatic activity was represented by a ratio of the two readout at the two emission wavelengths. The enzymatic activity for each compound was tested at 11 concentrations, and IC50 values of the compounds were obtained by calculating the data using GraFit6.0 software (Erithacus Software).

Data set [5] concerns the target TrkC kinase (Homo sapiens (Human), UniProt Q16288). Briefly: HTRF assay for inhibitory activity (IC50) against NTRK kinase, TrkC. Conditions: ATP 20 μM, kinase 1 nM. Type of data set: biochemical. The procedure: as §1, §2
The target in data set [6] is TrkB kinase (Homo sapiens (Human), UniProt Q16620). Briefly: HTRF assay for inhibitory activity (IC50) against NTRK kinase, TrkB. Type of data set: biochemical. Conditions: ATP 50 μM, kinase 0.1 nM. The procedure: as §1, §2
Sequence of TrkB kinase (Q16620 32-822): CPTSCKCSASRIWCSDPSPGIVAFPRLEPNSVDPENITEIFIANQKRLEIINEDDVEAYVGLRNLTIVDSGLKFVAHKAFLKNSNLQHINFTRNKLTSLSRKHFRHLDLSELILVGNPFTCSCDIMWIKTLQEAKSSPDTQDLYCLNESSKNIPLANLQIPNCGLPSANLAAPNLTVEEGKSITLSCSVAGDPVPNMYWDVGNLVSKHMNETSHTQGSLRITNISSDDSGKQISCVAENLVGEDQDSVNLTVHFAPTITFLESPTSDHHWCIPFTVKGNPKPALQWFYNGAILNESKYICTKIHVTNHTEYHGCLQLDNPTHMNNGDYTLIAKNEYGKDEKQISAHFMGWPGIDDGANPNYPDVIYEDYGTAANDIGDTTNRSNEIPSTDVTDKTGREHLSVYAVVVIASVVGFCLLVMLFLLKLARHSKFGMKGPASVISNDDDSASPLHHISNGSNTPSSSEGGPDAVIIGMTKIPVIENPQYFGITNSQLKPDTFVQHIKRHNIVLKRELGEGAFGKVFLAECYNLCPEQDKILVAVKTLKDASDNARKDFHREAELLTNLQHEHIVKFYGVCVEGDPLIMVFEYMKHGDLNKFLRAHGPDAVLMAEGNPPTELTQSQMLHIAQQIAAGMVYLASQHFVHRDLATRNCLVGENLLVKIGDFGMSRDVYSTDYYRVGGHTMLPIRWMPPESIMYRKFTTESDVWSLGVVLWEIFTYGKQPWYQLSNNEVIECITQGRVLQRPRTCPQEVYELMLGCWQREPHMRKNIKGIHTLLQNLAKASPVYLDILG

Sequence of TrkA kinase (P04629 33-796): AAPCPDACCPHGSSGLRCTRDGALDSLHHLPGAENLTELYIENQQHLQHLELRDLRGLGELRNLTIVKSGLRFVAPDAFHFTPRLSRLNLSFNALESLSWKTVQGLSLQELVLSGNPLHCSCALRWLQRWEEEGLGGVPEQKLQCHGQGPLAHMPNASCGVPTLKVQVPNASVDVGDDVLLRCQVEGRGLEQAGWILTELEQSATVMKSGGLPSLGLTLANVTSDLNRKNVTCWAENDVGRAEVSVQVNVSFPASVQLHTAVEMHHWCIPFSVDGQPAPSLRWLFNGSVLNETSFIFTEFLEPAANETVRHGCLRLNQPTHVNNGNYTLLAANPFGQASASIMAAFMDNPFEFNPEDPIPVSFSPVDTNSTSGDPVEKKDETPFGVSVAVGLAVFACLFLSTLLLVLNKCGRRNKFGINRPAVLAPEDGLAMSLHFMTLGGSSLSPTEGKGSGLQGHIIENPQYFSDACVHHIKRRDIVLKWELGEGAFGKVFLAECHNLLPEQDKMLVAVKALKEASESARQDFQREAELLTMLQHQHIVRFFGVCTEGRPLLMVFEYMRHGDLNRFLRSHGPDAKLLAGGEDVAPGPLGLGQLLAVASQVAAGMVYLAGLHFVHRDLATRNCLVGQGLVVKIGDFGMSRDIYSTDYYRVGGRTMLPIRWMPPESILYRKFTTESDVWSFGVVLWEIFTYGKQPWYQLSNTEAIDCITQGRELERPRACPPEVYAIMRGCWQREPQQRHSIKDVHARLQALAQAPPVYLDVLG
Sequence of TrkC kinase (Q16288 32-839): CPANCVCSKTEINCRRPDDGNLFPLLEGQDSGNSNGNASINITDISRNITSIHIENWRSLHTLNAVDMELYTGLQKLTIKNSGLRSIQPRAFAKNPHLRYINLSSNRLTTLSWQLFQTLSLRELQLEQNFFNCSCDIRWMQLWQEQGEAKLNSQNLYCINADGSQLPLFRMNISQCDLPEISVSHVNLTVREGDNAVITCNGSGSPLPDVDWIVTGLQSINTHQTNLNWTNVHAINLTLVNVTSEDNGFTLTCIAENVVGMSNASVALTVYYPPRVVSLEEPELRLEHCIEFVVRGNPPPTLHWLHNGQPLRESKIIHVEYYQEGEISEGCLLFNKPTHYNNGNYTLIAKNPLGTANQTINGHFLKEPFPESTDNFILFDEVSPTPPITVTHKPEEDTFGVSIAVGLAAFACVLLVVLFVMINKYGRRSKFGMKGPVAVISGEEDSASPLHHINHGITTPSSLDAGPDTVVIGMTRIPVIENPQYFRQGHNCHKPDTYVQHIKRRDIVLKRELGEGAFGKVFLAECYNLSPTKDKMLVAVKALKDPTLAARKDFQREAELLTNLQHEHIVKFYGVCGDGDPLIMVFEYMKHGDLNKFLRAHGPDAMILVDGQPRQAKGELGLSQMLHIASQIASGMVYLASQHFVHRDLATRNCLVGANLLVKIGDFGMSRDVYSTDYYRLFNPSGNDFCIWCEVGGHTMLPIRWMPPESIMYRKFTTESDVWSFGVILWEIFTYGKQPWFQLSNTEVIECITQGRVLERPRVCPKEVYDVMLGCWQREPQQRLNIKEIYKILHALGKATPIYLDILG
Sequence of JAK2 kinase (O60674 whole entry): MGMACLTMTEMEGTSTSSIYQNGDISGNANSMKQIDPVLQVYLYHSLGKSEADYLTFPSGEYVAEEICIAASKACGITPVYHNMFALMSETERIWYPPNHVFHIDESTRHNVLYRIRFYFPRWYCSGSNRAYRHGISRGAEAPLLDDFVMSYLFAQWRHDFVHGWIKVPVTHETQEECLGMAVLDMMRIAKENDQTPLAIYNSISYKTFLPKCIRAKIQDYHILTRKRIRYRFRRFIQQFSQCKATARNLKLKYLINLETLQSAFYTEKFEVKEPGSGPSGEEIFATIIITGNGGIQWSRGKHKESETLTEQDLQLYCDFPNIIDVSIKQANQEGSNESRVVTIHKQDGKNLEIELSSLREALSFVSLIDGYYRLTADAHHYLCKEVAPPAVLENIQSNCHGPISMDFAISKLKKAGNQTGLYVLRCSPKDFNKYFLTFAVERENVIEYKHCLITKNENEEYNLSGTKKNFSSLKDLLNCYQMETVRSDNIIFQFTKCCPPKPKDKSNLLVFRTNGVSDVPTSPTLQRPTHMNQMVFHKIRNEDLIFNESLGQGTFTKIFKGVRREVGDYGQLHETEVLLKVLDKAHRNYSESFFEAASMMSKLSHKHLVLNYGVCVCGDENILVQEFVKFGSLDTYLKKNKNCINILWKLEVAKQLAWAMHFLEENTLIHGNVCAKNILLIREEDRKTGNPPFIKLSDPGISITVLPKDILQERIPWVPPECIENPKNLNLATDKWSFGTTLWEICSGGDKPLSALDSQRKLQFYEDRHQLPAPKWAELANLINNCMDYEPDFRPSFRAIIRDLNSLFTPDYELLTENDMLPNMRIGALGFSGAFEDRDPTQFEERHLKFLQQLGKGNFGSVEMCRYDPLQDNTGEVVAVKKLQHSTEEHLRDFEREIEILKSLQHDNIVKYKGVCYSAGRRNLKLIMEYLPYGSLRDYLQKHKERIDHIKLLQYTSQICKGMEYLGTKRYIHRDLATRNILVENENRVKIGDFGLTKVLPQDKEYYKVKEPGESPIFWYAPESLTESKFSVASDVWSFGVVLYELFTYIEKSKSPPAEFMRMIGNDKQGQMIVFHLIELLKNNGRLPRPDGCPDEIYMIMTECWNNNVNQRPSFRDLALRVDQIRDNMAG
Sequence of TrkA^G667C (Kinase domain) kinase (P04629 510-781 G667C): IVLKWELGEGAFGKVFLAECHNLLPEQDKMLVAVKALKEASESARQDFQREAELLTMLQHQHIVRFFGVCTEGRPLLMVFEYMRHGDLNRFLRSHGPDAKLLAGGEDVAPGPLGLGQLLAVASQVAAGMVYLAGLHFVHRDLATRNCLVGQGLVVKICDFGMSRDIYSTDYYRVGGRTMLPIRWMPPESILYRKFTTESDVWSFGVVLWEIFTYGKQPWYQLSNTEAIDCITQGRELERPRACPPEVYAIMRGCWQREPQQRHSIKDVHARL

`NC(=O)c1c(N)nn2ccc(N3C[C@@H](F)C[C@@H]3c3cc(F)ccc3F)nc12` [Example 36, 2-amino-5-((2R,4S)-2-(2,5-difluorophenyl)-4-fluoropyrrolidin-1-yl)pyrazolo[1,5-a]pyrimidine-3-carboxamide]: the Cmax in data set [1] was 488 ng/mL. Also, in data set [1], the Tmax came out at 1 h. The compound further showed a half-life in data set [1] of 185 min. In addition, the AUC(0-inf) in data set [1] (read-out: AUCINF_obs) was determined as 2240 ng·h/mL. In addition, the IC50 in data set [2] was under 10 nM; in data set [3], over 100 nM; in data set [4] (Table 1, ATP 40 μM), under 1 nM; in data set [4] (Table 2, ATP 40 μM), under 1 nM; in data set [5], under 1 nM; in data set [6], under 1 nM.

One may read the Cmax as the highest concentration seen after dosing. One may read the Tmax as the time from dosing to the highest level. One may read the half-life as the time needed for the level to fall by half in the phase considered. Higher therefore signals slow loss. As a reminder, the IC50 is the concentration at which inhibition is half-maximal.

These data come from US10829492B2, “Amino pyrazolopyrimidine compound used as neurotrophic factor tyrosine kinase receptor inhibitor” (CHIA TAI TIANQING PHARMACEUTICAL GROUP CO., LTD., priority 2016, dated 2020).
